Measured values taken from PubChem BioAssay AID1963420 (Molecular Pharmacology Branch, DTP, NCI, 2024).
Where “and” joins values, the source holds several entries; their conditions need not be identical. Identical values can stand only once.

Test system: 494315-158-R-J1-PDC complex spheroid growth, percent test/control
Test: Anticancer human tumor 494315-158-R-J1-PDC patient-derived soft tissue sarcoma cell line growth inhibition [Asc]
Settings: for viability, T/C: stronger effect = lower value; active = viability on the fitted dose curve at most 10% of control; inactive = the rest
How it was run: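 Tumor cells were grown as multicellular spheroids with stromal HUVEC and mesenchymal stem cells and treated singly or in combination. Concentrations fell in half-log steps from the clinical Cmax, or from 10 microM where none was known.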

[1] = curve of first compound, second compound 0.1 µM
[2] = curve of first compound, second compound 0.316 µM
[3] = curve of first compound, second compound 1 µM
[4] = curve of first compound, second compound 3.16 µM
[5] = curve of first compound, second compound 10 µM
[6] = second compound 0.1 µM, first compound 0.0316 µM
[7] = second compound 0.1 µM, first compound 0.1 µM
[8] = second compound 0.1 µM, first compound 0.316 µM
[9] = second compound 0.1 µM, first compound 1 µM
[10] = second compound 0.316 µM, first compound 0.0316 µM
[11] = second compound 0.316 µM, first compound 0.1 µM
[12] = second compound 0.316 µM, first compound 0.316 µM
[13] = second compound 0.316 µM, first compound 1 µM
[14] = second compound 1 µM, first compound 0.0316 µM
[15] = second compound 1 µM, first compound 0.1 µM
[16] = second compound 1 µM, first compound 0.316 µM
[17] = second compound 1 µM, first compound 1 µM
[18] = second compound 3.16 µM, first compound 0.0316 µM
[19] = second compound 3.16 µM, first compound 0.1 µM
[20] = second compound 3.16 µM, first compound 0.316 µM
[21] = second compound 3.16 µM, first compound 1 µM
[22] = second compound 10 µM, first compound 0.0316 µM
[23] = second compound 10 µM, first compound 0.1 µM
[24] = second compound 10 µM, first compound 0.316 µM
[25] = second compound 10 µM, first compound 1 µM
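Note: compound exposure lasted seven days after spheroids formed for three days.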

C=CC(=O)N1CCN(c2nc(=O)n(-c3c(C)ccnc3C(C)C)c3nc(-c4c(O)cccc4F)c(F)cc23)C(C)C1 (configuration not stated) + Cc1c(S(C)(=O)=O)c(-c2cc(F)cc(N3CCN(c4ccc(NS(=O)(=O)c5ccc(NC(CCN6CCC(C(=O)OCCCP(=O)(O)O)CC6)CSc6ccccc6)c(S(=O)(=O)C(F)(F)F)c5)cc4)CC3)c2)c(-c2ccc(Cl)cc2)n1C(C)C
> 10 µM: IC50 [1] | IC50 [2] | IC50 [3] | IC50 [4] | IC50 [5]
inactive: viability, T/C [6] 101% | viability, T/C [7] 84.5% | viability, T/C [8] 88.9% | viability, T/C [9] 100% | viability, T/C (second compound 0.1 µM, first compound 3.16 µM) 108% | viability, T/C (second compound 0.1 µM, first compound 10 µM) 91.7% | viability, T/C [10] 67.4% | viability, T/C [11] 75.3% | viability, T/C [12] 72.2% | viability, T/C [13] 89.9% | viability, T/C (second compound 0.316 µM, first compound 3.16 µM) 80% | viability, T/C (second compound 0.316 µM, first compound 10 µM) 78.3% | viability, T/C [14] 86.4% | viability, T/C [15] 63.5% | viability, T/C [16] 74.1% | viability, T/C [17] 79.3% | viability, T/C (second compound 1 µM, first compound 3.16 µM) 84% | viability, T/C (second compound 1 µM, first compound 10 µM) 66% | viability, T/C [18] 61.1% | viability, T/C [19] 60.2% | viability, T/C [20] 69.5% | viability, T/C [21] 79.9% | viability, T/C (second compound 3.16 µM, first compound 3.16 µM) 81.4% | viability, T/C (second compound 3.16 µM, first compound 10 µM) 60.9% | viability, T/C [22] 81.3% | viability, T/C [23] 84.5% | viability, T/C [24] 92.8% | viability, T/C [25] 90.1% | viability, T/C (second compound 10 µM, first compound 3.16 µM) 98.5% | viability, T/C (second compound 10 µM, first compound 10 µM) 67.3%

Cn1ncnc1[C@H]1c2n[nH]c(=O)c3cc(F)cc(c23)N[C@@H]1c1ccc(F)cc1
inactive: viability, T/C (compound 0.000316 µM) 84.6% and 103% and 102% | viability, T/C (compound 0.001 µM) 85.7% and 93.6% and 83.1% | viability, T/C (compound 0.00316 µM) 83.3% and 95.1% and 85% | viability, T/C (compound 0.01 µM) 73.3% and 73.7% and 87.7% | viability, T/C (compound 0.0316 µM) 66.1% and 69.2% and 73.8% | viability, T/C (compound 0.1 µM) 67.4% and 65.3% and 60.4%
> 0.1 µM: IC50 (curve of compound)

C#Cc1c(F)ccc2cc(O)cc(-c3ncc4c(N5CC6CCC(C5)N6)nc(OCC56CCCN5CC(F)C6)nc4c3F)c12 (configuration not stated) + CCN1C(C(=O)NC23CCC(C(=O)O)(CC2)CC3)C(c2cccc(Cl)c2F)C2(C(=O)Nc3cc(Cl)ccc32)C12CCCCC2
inactive: viability, T/C (second compound 0.03 µM, first compound 0.0316 µM) 94.3% | viability, T/C (second compound 0.03 µM, first compound 0.1 µM) 105% | viability, T/C (second compound 0.03 µM, first compound 0.316 µM) 116% | viability, T/C (second compound 0.03 µM, first compound 1 µM) 94.5% | viability, T/C (second compound 0.03 µM, first compound 3.16 µM) 108% | viability, T/C (second compound 0.03 µM, first compound 10 µM) 94.6% | viability, T/C (second compound 0.0949 µM, first compound 0.0316 µM) 89.9% | viability, T/C (second compound 0.0949 µM, first compound 0.1 µM) 80.4% | viability, T/C (second compound 0.0949 µM, first compound 0.316 µM) 98.2% | viability, T/C (second compound 0.0949 µM, first compound 1 µM) 87.4% | viability, T/C (second compound 0.0949 µM, first compound 3.16 µM) 90.5% | viability, T/C (second compound 0.0949 µM, first compound 10 µM) 71.4% | viability, T/C (second compound 0.3 µM, first compound 0.0316 µM) 95.1% | viability, T/C (second compound 0.3 µM, first compound 0.1 µM) 102% | viability, T/C (second compound 0.3 µM, first compound 0.316 µM) 102% | viability, T/C (second compound 0.3 µM, first compound 1 µM) 103% | viability, T/C (second compound 0.3 µM, first compound 3.16 µM) 108% | viability, T/C (second compound 0.3 µM, first compound 10 µM) 75.9% | viability, T/C (second compound 0.949 µM, first compound 0.0316 µM) 85.1% | viability, T/C (second compound 0.949 µM, first compound 0.1 µM) 100% | viability, T/C (second compound 0.949 µM, first compound 0.316 µM) 107% | viability, T/C (second compound 0.949 µM, first compound 1 µM) 83.8% | viability, T/C (second compound 0.949 µM, first compound 3.16 µM) 110% | viability, T/C (second compound 0.949 µM, first compound 10 µM) 86.2% | viability, T/C (second compound 3 µM, first compound 0.0316 µM) 89.5% | viability, T/C (second compound 3 µM, first compound 0.1 µM) 91.5% | viability, T/C (second compound 3 µM, first compound 0.316 µM) 89% | viability, T/C (second compound 3 µM, first compound 1 µM) 107% | viability, T/C (second compound 3 µM, first compound 3.16 µM) 100% | viability, T/C (second compound 3 µM, first compound 10 µM) 85.6%
> 10 µM: IC50 (curve of first compound, second compound 0.03 µM) | IC50 (curve of first compound, second compound 0.0949 µM) | IC50 (curve of first compound, second compound 0.3 µM) | IC50 (curve of first compound, second compound 0.949 µM) | IC50 (curve of first compound, second compound 3 µM)

CNC(C)C(=O)NC1CN(S(=O)(=O)c2cccc(S(=O)(=O)N3CCC4CCC(C(=O)NC(c5ccccc5)c5ccccc5)N4C(=O)C(NC(=O)C(C)NC)C3)c2)CCC2CCC(C(=O)NC(c3ccccc3)c3ccccc3)N2C1=O (configuration not stated) + Cc1c(S(C)(=O)=O)c(-c2cc(F)cc(N3CCN(c4ccc(NS(=O)(=O)c5ccc(NC(CCN6CCC(C(=O)OCCCP(=O)(O)O)CC6)CSc6ccccc6)c(S(=O)(=O)C(F)(F)F)c5)cc4)CC3)c2)c(-c2ccc(Cl)cc2)n1C(C)C
inactive: viability, T/C (second compound 0.1 µM, first compound 0.00316 µM) 66.2% | viability, T/C (second compound 0.1 µM, first compound 0.01 µM) 57.6% | viability, T/C [6] 42.9% | viability, T/C [7] 36.8% | viability, T/C [8] 29.5% | viability, T/C [9] 26.9% | viability, T/C (second compound 0.316 µM, first compound 0.00316 µM) 46.4% | viability, T/C (second compound 0.316 µM, first compound 0.01 µM) 47.5% | viability, T/C [10] 39.1% | viability, T/C [11] 39.3% | viability, T/C [12] 26% | viability, T/C [13] 30% | viability, T/C (second compound 1 µM, first compound 0.00316 µM) 68.2% | viability, T/C (second compound 1 µM, first compound 0.01 µM) 43.2% | viability, T/C [14] 42.8% | viability, T/C [15] 34.7% | viability, T/C [16] 26.4% | viability, T/C [17] 23.9% | viability, T/C (second compound 3.16 µM, first compound 0.00316 µM) 49% | viability, T/C (second compound 3.16 µM, first compound 0.01 µM) 39.7% | viability, T/C [18] 32.6% | viability, T/C [19] 21.8% | viability, T/C [20] 36.7% | viability, T/C [21] 19.8% | viability, T/C (second compound 10 µM, first compound 0.00316 µM) 60.3% | viability, T/C (second compound 10 µM, first compound 0.01 µM) 60.5% | viability, T/C [22] 44.5% | viability, T/C [23] 36.4% | viability, T/C [24] 29.3% | viability, T/C [25] 29.4%
0.0188 µM: IC50 [1]
0.00957 µM: IC50 [3]
< 0.00316 µM: IC50 [2] | IC50 [4]
0.0222 µM: IC50 [5]
